Measurements as given in ChEMBL document CHEMBL6182828, “Medicinal chemistry-based perspectives on thiophene and its derivatives: exploring structural insights to discover plausible druggable leads” (RSC Med Chem, 2025).
Blank lines part the entries; values can stand above or below the molecule they belong to.

How the values were obtained:
[1] = Half life in po dosed human; type: ADME, organism-based; conditions: in vivo
[2] = target: Vascular endothelial growth factor receptor 2 (Homo sapiens, UniProt P35968); test: Inhibition of VEGFR2 (unknown origin)
Vascular endothelial growth factor receptor 2, sequence (P35968 whole entry): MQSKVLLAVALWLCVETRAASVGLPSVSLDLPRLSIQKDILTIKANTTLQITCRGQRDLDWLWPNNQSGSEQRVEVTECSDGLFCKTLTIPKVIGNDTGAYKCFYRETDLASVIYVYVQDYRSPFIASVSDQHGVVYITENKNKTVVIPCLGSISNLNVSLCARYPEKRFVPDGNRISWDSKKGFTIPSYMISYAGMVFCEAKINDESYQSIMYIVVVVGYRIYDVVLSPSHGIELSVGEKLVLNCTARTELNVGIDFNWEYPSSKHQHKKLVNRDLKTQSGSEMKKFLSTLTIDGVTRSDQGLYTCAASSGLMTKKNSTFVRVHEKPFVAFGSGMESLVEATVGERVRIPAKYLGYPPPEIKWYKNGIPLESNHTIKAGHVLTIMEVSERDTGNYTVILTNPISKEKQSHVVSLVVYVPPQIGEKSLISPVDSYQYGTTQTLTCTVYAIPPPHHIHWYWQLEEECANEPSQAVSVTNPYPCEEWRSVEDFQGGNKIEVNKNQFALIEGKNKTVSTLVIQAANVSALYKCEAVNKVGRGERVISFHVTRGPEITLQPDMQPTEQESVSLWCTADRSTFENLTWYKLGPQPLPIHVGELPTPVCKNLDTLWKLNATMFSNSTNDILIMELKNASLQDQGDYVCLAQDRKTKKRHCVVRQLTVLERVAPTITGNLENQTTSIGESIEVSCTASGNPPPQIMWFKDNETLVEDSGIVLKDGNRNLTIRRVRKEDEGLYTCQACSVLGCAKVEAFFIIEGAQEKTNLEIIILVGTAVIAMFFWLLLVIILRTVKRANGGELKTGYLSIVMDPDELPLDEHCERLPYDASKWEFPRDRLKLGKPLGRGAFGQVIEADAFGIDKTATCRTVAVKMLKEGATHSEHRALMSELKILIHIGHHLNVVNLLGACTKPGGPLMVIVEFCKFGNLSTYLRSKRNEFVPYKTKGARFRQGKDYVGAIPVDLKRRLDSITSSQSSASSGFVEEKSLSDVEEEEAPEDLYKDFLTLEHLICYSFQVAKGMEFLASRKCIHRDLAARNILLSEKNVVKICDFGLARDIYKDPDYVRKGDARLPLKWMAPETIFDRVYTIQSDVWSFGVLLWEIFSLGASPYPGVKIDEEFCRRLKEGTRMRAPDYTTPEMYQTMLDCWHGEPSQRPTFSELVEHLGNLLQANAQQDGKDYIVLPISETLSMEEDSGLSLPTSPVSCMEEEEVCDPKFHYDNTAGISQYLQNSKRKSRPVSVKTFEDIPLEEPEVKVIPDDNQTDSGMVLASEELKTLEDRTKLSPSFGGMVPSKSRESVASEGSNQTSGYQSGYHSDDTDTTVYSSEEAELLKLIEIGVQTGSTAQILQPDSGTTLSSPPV

[3] = target: Epidermal growth factor receptor (Homo sapiens, UniProt P00533); test: Inhibition of EGFR (unknown origin)
Epidermal growth factor receptor, sequence (P00533 whole entry, the tested form may be a part): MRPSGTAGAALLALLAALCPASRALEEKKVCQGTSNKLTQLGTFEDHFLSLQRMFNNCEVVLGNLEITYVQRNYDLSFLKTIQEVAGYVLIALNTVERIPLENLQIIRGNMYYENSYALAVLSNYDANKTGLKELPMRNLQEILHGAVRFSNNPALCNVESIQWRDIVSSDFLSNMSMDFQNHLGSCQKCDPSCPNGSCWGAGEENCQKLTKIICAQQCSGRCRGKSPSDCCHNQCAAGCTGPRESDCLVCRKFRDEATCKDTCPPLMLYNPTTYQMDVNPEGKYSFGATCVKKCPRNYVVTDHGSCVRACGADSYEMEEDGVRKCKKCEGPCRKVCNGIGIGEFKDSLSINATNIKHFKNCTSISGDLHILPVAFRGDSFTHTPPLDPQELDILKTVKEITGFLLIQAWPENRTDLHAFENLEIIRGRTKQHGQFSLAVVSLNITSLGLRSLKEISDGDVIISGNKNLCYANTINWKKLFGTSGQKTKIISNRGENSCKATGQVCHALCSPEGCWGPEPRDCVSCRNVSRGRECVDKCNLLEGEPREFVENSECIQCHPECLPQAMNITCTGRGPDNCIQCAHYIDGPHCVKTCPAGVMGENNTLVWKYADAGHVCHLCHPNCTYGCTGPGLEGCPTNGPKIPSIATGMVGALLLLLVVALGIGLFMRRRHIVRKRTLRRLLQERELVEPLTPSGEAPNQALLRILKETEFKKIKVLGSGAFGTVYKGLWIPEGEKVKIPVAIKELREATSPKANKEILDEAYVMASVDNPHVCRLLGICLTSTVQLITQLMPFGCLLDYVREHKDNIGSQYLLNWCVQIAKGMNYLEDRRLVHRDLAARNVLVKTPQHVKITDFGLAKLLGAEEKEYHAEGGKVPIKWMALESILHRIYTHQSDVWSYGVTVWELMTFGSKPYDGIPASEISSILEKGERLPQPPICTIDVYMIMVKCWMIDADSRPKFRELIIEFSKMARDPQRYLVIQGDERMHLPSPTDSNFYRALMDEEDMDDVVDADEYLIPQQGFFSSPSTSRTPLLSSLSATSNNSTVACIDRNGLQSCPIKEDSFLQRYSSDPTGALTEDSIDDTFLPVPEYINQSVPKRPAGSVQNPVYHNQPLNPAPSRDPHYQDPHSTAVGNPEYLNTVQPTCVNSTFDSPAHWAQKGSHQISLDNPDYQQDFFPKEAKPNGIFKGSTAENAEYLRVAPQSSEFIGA

Bacillus subtilis [4] = test: Antibacterial activity against Bacillus subtilis ATCC 6633 assessed as zone of inhibition incubated for 48 hrs by agar diffusion method; type: functional
Escherichia coli = test: Antibacterial activity against Escherichia coli ATCC 35218 assessed as zone of inhibition incubated for 48 hrs by agar diffusion method; type: functional
Mus musculus = test: Anti-diabetic activity against 16 hrs fasted KK/Ay mouse assessed as reduced blood glucose level at 2g/kg, po measured after 2 hrs by oral pyruvate tolerance test; type: functional
Bacillus subtilis [5] = test: Antibacterial activity against Bacillus subtilis ATCC 6633 assessed as zone of inhibition; type: functional
Staphylococcus aureus = test: Antibacterial activity against Staphylococcus aureus ATCC 25923 assessed as zone of inhibition; type: functional
[6] = target: T1, Polyunsaturated fatty acid 5-lipoxygenase (Homo sapiens, UniProt P09917); test: Inhibition of 5-LOX (unknown origin)
T1 sequence (P09917 whole entry): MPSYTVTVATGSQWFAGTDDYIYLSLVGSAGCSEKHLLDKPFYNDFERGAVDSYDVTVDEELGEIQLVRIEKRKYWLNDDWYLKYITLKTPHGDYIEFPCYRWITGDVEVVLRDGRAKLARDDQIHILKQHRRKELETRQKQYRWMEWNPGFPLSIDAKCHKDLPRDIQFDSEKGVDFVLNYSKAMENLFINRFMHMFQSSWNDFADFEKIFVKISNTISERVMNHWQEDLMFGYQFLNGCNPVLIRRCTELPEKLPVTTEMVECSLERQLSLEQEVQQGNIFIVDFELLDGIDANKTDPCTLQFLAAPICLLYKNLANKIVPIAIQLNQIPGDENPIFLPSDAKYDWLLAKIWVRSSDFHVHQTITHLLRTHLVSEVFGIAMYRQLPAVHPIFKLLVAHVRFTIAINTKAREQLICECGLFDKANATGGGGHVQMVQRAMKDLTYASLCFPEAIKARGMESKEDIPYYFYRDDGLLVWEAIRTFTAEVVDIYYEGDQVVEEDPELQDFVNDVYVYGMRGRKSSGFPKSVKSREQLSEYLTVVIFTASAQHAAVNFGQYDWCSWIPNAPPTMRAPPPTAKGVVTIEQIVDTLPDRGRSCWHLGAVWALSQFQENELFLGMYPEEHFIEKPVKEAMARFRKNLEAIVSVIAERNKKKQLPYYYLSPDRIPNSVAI

[7] = Half life in human, iv; type: ADME
Rattus norvegicus = test: Anti-inflammatory activity against carrageenan-induced paw edema in Albino rat assessed as inhibition of paw edema at 50 mg/kg, po relative to control; type: functional; design: scale not given: the % may be the effect or the level left
PC-3 = test: cells; conditions: Homo sapiens
Description: Cytotoxicity against human PC-3 cells assessed as reduction in cell viability by MTT assay

MDA-MB-231 = test: cells; conditions: Homo sapiens
Description: Cytotoxicity against human MDA-MB-231 cells assessed as reduction in cell viability by MTT assay

A549 = test: cells; conditions: Homo sapiens
Description: Cytotoxicity against human A549 cells assessed as reduction in cell viability by MTT assay

[8] = Antioxidant activity assessed as DPPH radical scavenging activity at 10 uM incubated for 30 mins by absorbance based assay relative to control; type: functional
[9] = Inhibition of urease (unknown origin)
Glucagon receptor [10] = target: T2, Glucagon receptor (Homo sapiens, UniProt P47871); test: Antagonist activity at wild type human GCGR transfected in HEK293T cells assessed as intracellular cAMP accumulation incubated for 60 mins by FRET assay; type: functional, cell-based
T2 sequence (P47871 whole entry): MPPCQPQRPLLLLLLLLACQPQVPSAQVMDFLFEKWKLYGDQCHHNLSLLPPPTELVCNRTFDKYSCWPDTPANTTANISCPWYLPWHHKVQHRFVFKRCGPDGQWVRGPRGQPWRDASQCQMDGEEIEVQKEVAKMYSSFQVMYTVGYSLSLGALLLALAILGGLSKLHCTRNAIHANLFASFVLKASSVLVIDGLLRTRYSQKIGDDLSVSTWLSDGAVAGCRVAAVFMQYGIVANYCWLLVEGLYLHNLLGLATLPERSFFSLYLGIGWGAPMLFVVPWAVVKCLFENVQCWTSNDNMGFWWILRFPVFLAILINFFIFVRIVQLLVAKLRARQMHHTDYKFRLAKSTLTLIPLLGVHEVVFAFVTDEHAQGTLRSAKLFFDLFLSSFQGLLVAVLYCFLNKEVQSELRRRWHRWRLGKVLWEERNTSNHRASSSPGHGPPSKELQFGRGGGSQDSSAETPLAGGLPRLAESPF

Glucagon receptor [11] = target: T2, Glucagon receptor; test: Antagonist activity at wild type human GCGR
[12] = Elimination half life in human at 5 mg/kg, po; type: ADME, organism-based; conditions: in vivo, read-out: LambdaZ (converted)
[13] = Antioxidant activity assessed as ROS scavenging activity relative to control; type: functional; conditions: dose or concentration not given here
NCI-H460 = test: Growth inhibition of human NCI-H460 cells incubated for 48 hrs by SRB assay; type: functional
MCF7 = test: Growth inhibition of human MCF7 cells incubated for 48 hrs by SRB assay; type: functional
SF-268 = test: Growth inhibition of human SF-268 cells incubated for 48 hrs by SRB assay; type: functional
[14] = target: Amine oxidase [flavin-containing] B (Homo sapiens, UniProt P27338); test: Inhibition of human MAO-B measured after 25 mins by Amplex Red reagent based fluorescence analysis
Amine oxidase [flavin-containing] B, sequence (P27338 whole entry): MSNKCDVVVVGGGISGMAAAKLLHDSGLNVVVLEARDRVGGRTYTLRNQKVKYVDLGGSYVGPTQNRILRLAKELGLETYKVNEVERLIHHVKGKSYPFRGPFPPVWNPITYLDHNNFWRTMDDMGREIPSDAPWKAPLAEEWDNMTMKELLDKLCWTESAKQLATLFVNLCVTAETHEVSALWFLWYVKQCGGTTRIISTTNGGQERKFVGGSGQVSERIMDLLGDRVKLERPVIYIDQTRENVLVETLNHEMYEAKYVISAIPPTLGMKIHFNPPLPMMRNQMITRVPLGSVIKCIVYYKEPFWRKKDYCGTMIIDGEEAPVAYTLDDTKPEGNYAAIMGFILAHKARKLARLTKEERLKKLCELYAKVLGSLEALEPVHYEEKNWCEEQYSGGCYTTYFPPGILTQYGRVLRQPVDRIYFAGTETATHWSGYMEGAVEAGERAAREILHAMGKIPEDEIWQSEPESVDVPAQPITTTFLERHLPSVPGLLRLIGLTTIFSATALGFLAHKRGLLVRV

[15] = Inhibition of Alpha-amylase (unknown origin); design: species or system Homo sapiens
Alpha glucosidase = Alpha glucosidase (Homo sapiens, UniProt O43451+P10253+P14410+Q2M2H8); test: Inhibition of Alpha glucosidase (unknown origin); type: protein assay

- half-life [1]: 25 h
SMILES: CONC(=O)Nc1ccc(-c2sc3c(c2CN(C)C)c(=O)n(-c2ccc(OC)nn2)c(=O)n3Cc2c(F)cccc2F)cc1 [RELUGOLIX]

- IC50 [2]: 11.3 nM
- IC50 [3]: 46.6 nM
SMILES: Cc1c(NC(=O)Nc2ccc(OC(F)(F)F)cc2)sc2ccccc12

- IC50 [2]: 320 nM
- IC50 [3]: 320 nM
SMILES: N#Cc1c(N)sc(C(=O)NC2=NN=C(O)/C2=C(\C=C\c2ccccc2)c2ccccc2)c1N

- IC50 [6]: 10000 nM
SMILES: COc1cc2ncn(-c3cc(OCc4ccccc4C(F)(F)F)c(C(N)=O)s3)c2cc1OC [GW843682X]

- half-life [7]: 0.683 h
SMILES: CO[C@@]1(NC(=O)Cc2cccs2)C(=O)N2C(C(=O)O)=C(COC(N)=O)CS[C@@H]21 [CEFOXITIN]

- IC50 (PC-3): 700 nM
- IC50 (MDA-MB-231): 980 nM
- IC50 (A549): 700 nM
SMILES: COc1cccc2c1C(=O)c1c(O)c3c(c(O)c1C2=O)C[C@@](O)(C(=O)CO)C[C@@H]3O[C@H]1C[C@H](N)[C@H](O)[C@H](C)O1 [DOXORUBICIN]

- IC50 [6]: 5640 nM
SMILES: Cc1ccc(-c2cc(C(F)(F)F)nn2-c2ccc(S(N)(=O)=O)cc2)cc1 [CELECOXIB]

- IC50 [9]: 110 nM
SMILES: Cc1ccc2c(c1)n(CN1CCN(c3ccccc3)CC1)c(=O)n2CN1CCN(c2ccccc2)CC1

- IC50 (Glucagon receptor [10]): 14400 nM
- IC50 (Glucagon receptor [11]): 4400 nM
SMILES: Cc1cc(Cl)ccc1-c1ccc(NC(=O)C(Cc2ccc(C(=O)NCCS(=O)(=O)O)s2)c2ccc(-c3ccc(C(C)(C)C)cc3)cc2)cc1 (stereo not drawn)

- half-life [12]: 10.6 h
SMILES: Cc1ccc([C@@H]2O[C@H](CO)[C@@H](O)[C@H](O)[C@H]2O)cc1Cc1ccc(-c2ccc(F)cc2)s1 [CANAGLIFLOZIN ANHYDROUS]

- GI50 (NCI-H460): 10 nM
- GI50 (MCF7): 10 nM
SMILES: CCOC(=O)c1cc(C(=O)N/N=C(/C)[C@H]2CC[C@H]3[C@@H]4CC=C5C[C@@H](O)CC[C@]5(C)[C@H]4CC[C@]23C)c(Nc2ccccc2)s1
- GI50 (SF-268): 30 nM

- IC50 [14]: 1030 nM
SMILES: C/C(=N\N=C1/CS(=O)(=O)N(C)c2ccccc21)c1ccc(Br)s1

- IC50 [15]: 30400 nM
- IC50 (Alpha glucosidase): 590 nM
SMILES: COc1ccc(CNC(=O)Nc2sc3c(c2C#N)CCCC3)c(OC)c1

- half-life [1]: 19 h
SMILES: O=C(Nc1nc(-c2cc(Cl)cs2)c(N2CCN(C3CCCCC3)CC2)s1)c1cnc(N2CCC(C(=O)O)CC2)c(Cl)c1 [AVATROMBOPAG]

More lines, now with the values behind:

SMILES: O=c1c2ccccc2nc(-c2sc3ccccc3c2Cl)n1O
- inhibition zone (IZ) (Bacillus subtilis [4]): 15 mm
- inhibition zone (IZ) (Escherichia coli): 16 mm

SMILES: CC(=O)CC(=O)c1cc2ccccc2s1
- Activity (Mus musculus): <15.6 mmol/L

SMILES: O=C(CSc1nnc(-c2sc3ccccc3c2Cl)[nH]1)c1ccc(F)cc1
- inhibition zone (IZ) (Bacillus subtilis [5]): 16 mm
- inhibition zone (IZ) (Staphylococcus aureus): 15 mm

SMILES: O=C(C[S+]([O-])C(F)(F)F)c1cc2ccccc2s1 (stereo not drawn)
- Activity (Mus musculus): <10 mmol/L

SMILES: COc1ccc2c(c1)c(CC(=O)O)c(C)n2C(=O)c1ccc(Cl)cc1 [INDOMETHACIN]
- Activity (Rattus norvegicus): 47.73%

SMILES: Cc1cc(=O)oc2c(/C=N/NC(=O)c3sc4ccccc4c3Cl)c(O)ccc12
- inhibition [8]: 50%

SMILES: Cc1nc2ccc(CN(C)c3ccc(C(=O)N[C@@H](CCC(=O)O)C(=O)O)s3)cc2c(=O)[nH]1 [RALTITREXED]
- half-life [1]: 192 h

SMILES: CNCC[C@H](Oc1cccc2ccccc12)c1cccs1 [DULOXETINE]
- half-life [1]: 12 h

SMILES: COC1=C(Nc2sc3c(c2C(N)=O)CCCC3)C(=O)c2ccccc2C1=O
- inhibition [13]: 96%

SMILES: O=C(O[C@H]1C[N+]2(CCCOc3ccccc3)CCC1CC2)C(O)(c1cccs1)c1cccs1
- half-life [1]: 24 h

SMILES: CC(=O)c1ccc(NC(=O)c2sc(Nc3ccccc3)c(C(=O)Nc3ccccc3)c2N)cc1
- inhibition [8]: 62%

SMILES: Cc1ccc(NCc2ccc(CNc3ccc(C)cc3)o2)cc1
- IC50 (PC-3): 1030 nM
- IC50 (MDA-MB-231): 880 nM
- IC50 (A549): 680 nM
